{"source": "patent US20070027175A1", "about": "“Antineoplastic activities of ellipticine and its derivatives” (priority 2005, published 2007)", "key": {"RPMI 8226 cells": {"test_system": "RPMI 8226 cells", "assay": "Drug resistance and cytotoxicity MTT assay, RPMI 8226", "assay_type": "cell-based, human", "details": "96 hours", "description": "FIGS. 13A-13B show dose response of RPMI 8226 and 8226/Dox1V myeloma cells to EPED3 (FIG. 13A) or Dox (FIG. 13B). Cells were incubated for 96 hours with drug concentrations as indicated and analyzed by MTT assays; linear regression analysis was used to determine the IC50 for each drug (EPED3, FIG. 13A; Dox, FIG. 13B) and each cell line (RPMI8226, squares; 8226/Dox1V, circles). Data are presented as the mean of four independent experiments.\nThe 8226/Dox1V and its parental line, RPMI 8226, cells were plated in 96-well plates at 10,000 cells/well and incubated with serial dilutions of EPED3 or Dox, as previously described (Landowski et al., 1999). After 96 hours incubation at 37° C., MTT was added to each well at a final concentration of 20 μg/ml and incubated an additional 4 hours. Plates were centrifuged and the media replaced with 0.1 ml DMSO to solublize the formazan complex. Optical density was measured at 540 nm using a Bio-Tek microplate spectrophotometer. IC50 values were calculated by linear regression analysis (Origins® Software Technologies, Inc.) of the log-linear plot for percent survival versus log drug concentration.\nIn drug resistance studies, the efficacy of EPED3 with 8226/Dox1V cells and the parental line, RPMI 8226 cells was investigated. Both cell lines were treated with either EPED3 or Dox, and the MTT assays were used to assess cell growth. […]"}, "[1]": {"test_system": "RPMI8226 myeloma cell line", "assay": "CellTiter-Glo luminescent cell viability assay, RPMI8226", "assay_type": "cell-based, human", "set-up": "unit of the concentration uncertain", "description": "(§1) The dosage of each derivative was set at 2, 0.2 and 0.02 mM. A cell culture medium control and 0.5% DMSO control was maintained in each experiment. The cell viability was tested each day over a period of five days using the CellTiter-Glo luminescent cell viability assay kit from Promega Co.\nCell Titer-Glo luminescent cell viability assay kit from Promega Co (Madison, Wis.) was used to determine cell growth inhibition by the various compounds tested. The kit determines cell viability by quantifying the amount of ATP present in the cell culture medium. Presence of ATP signals the presence of metabolically active cells (3). The intensity of luminescence was measured by a computerized luminometer (Promega, Co. Madison, Wis.). Each well was read five times within 30 minutes of adding Cell Titer-Glo reagent mixture. […]"}, "Ark myeloma cell line": {"test_system": "Ark myeloma cell line", "assay": "CellTiter-Glo luminescent cell viability assay, Ark", "assay_type": "cell-based, human", "set-up": "unit of the concentration uncertain", "description": "as §1\nCell Titer-Glo luminescent cell viability assay kit from Promega Co (Madison, Wis.) was used to determine cell growth inhibition by the various compounds tested. The kit determines cell viability by quantifying the amount of ATP present in the cell culture medium. Presence of ATP signals the presence of metabolically active cells (3). The intensity of luminescence was measured by a computerized luminometer (Promega, Co. Madison, Wis.). Each well was read five times within 30 minutes of adding Cell Titer-Glo reagent mixture.\nCells were contacted with the antineoplastic agents in ninety six well culture plates. The concentration of each neoplastic agent was maintained a constant. A cell culture medium control and 0.5% DMSO control were maintained in each set of experiments. The cell viability was tested every day using the CellTiter-Glo luminescent cell viability kit from Promega Co. (Madison, Wis.) for a period of five days."}, "[2]": {"test_system": "human fetal bone mesenchymal cells", "assay": "Morphology of mesenchymal cells in co-culture", "assay_type": "cell-based", "details": "co-culture without direct contact; EPED3 2 mM, Velcade 0.5 mM", "description": "FIGS. 11A-11F compare the morphological features of EPED3 and Velcade induced apoptosis in myeloma cells and normal mesenchymal cells. JJN3 myeloma cell line and human fetal bone mesenchymal cells were co-cultured without direct contact between cell types. EPED3 (2 mM) and Velcade (0.5 mM) were added to the cultures; control cells were untreated. Live cell cultures were photographed 3 days after initiating treatment (400× magnification under Olympus invert-microscope with RT-Color SPOT digital camera and the software, Diagnostic Instrument Inc. Sterling Heights, Mich.). In comparison to cell morphology of non-treated JJN3 cells, myeloma cells were destroyed under both EPED3 (FIG. 11E) and Velcade (FIG. 11F) treatments as the appearance of cell shrinkage, and the formation of phagozytosed apoptotic bodies (arrows); in comparison to no treatment, mesenchymal cells were also destroyed by Velcade treatment as the appearance of cell shrinkage, and the formation of phagozytosed apoptotic bodies (arrows) (FIG. 1C) but not by EPED3 treatment (FIG. 11B).\nThe monolayer human fetal bone mesenchymal cells were established from live bone chips (Advanced Bioscience Resources Inc, Alameda, Calif.) in complete RPMI-1640 medium. The medium was the same as described above. The cells were trypsinized and seeded in 6-well plates, and then allowed to reach 75% confluence. […]"}}, "data": [{"smiles": "Cc1c2ccncc2c(C)c2c1[nH]c1ccc(OCCN(C)C)cc12", "note": "[NSC 338258, ellipticine, 9-dimethyl amino-ethoxy-]", "values": [{"measurement": "IC50", "setting": "RPMI 8226 cells", "result": 150, "unit": "nM"}, {"measurement": "cell viability (CellTiter-Glo luminescent assay)", "setting": "[1]; 0.02 (unit uncertain), Day 1", "result": "94,826"}, {"measurement": "cell viability (CellTiter-Glo luminescent assay)", "setting": "[1]; 0.02 (unit uncertain), Day 2", "result": "180,382"}, {"measurement": "cell viability (CellTiter-Glo luminescent assay)", "setting": "[1]; 0.02 (unit uncertain), Day 3", "result": "302,609"}, {"measurement": "cell viability (CellTiter-Glo luminescent assay)", "setting": "[1]; 0.02 (unit uncertain), Day 4", "result": "516,569"}, {"measurement": "cell viability (CellTiter-Glo luminescent assay)", "setting": "[1]; 0.02 (unit uncertain), Day 5", "result": "777,427"}, {"measurement": "cell viability (CellTiter-Glo luminescent assay)", "setting": "[1]; 0.2 (unit uncertain), Day 1", "result": "3,790"}, {"measurement": "cell viability (CellTiter-Glo luminescent assay)", "setting": "[1]; 0.2 (unit uncertain), Day 2", "result": "2,320"}, {"measurement": "cell viability (CellTiter-Glo luminescent assay)", "setting": "[1]; 0.2 (unit uncertain), Day 3", "result": "1,254"}, {"measurement": "cell viability (CellTiter-Glo luminescent assay)", "setting": "[1]; 0.2 (unit uncertain), Day 4", "result": "1,026"}, {"measurement": "cell viability (CellTiter-Glo luminescent assay)", "setting": "[1]; 0.2 (unit uncertain), Day 5", "result": 321}, {"measurement": "cell viability (CellTiter-Glo luminescent assay)", "setting": "[1]; 2 (unit uncertain), Day 1", "result": "4,685"}, {"measurement": "cell viability (CellTiter-Glo luminescent assay)", "setting": "[1]; 2 (unit uncertain), Day 2", "result": 923}, {"measurement": "cell viability (CellTiter-Glo luminescent assay)", "setting": "[1]; 2 (unit uncertain), Day 3", "result": 871}, {"measurement": "cell viability (CellTiter-Glo luminescent assay)", "setting": "[1]; 2 (unit uncertain), Day 4", "result": 234}, {"measurement": "cell viability (CellTiter-Glo luminescent assay)", "setting": "[1]; 2 (unit uncertain), Day 5", "result": 104}, {"measurement": "cell viability (CellTiter-Glo luminescent assay)", "setting": "Ark myeloma cell line; 0.02 (unit uncertain), Day 1", "result": "99,050"}, {"measurement": "cell viability (CellTiter-Glo luminescent assay)", "setting": "Ark myeloma cell line; 0.02 (unit uncertain), Day 2", "result": "187,835"}, {"measurement": "cell viability (CellTiter-Glo luminescent assay)", "setting": "Ark myeloma cell line; 0.02 (unit uncertain), Day 3", "result": "297,927"}, {"measurement": "cell viability (CellTiter-Glo luminescent assay)", "setting": "Ark myeloma cell line; 0.02 (unit uncertain), Day 4", "result": "764,382"}, {"measurement": "cell viability (CellTiter-Glo luminescent assay)", "setting": "Ark myeloma cell line; 0.02 (unit uncertain), Day 5", "result": "982,255"}, {"measurement": "cell viability (CellTiter-Glo luminescent assay)", "setting": "Ark myeloma cell line; 0.2 (unit uncertain), Day 1", "result": "1,085"}, {"measurement": "cell viability (CellTiter-Glo luminescent assay)", "setting": "Ark myeloma cell line; 0.2 (unit uncertain), Day 2", "result": 489}, {"measurement": "cell viability (CellTiter-Glo luminescent assay)", "setting": "Ark myeloma cell line; 0.2 (unit uncertain), Day 3", "result": 384}, {"measurement": "cell viability (CellTiter-Glo luminescent assay)", "setting": "Ark myeloma cell line; 0.2 (unit uncertain), Day 4", "result": 530}, {"measurement": "cell viability (CellTiter-Glo luminescent assay)", "setting": "Ark myeloma cell line; 0.2 (unit uncertain), Day 5", "result": 376}, {"measurement": "cell viability (CellTiter-Glo luminescent assay)", "setting": "Ark myeloma cell line; 2 (unit uncertain), Day 1", "result": 523}, {"measurement": "cell viability (CellTiter-Glo luminescent assay)", "setting": "Ark myeloma cell line; 2 (unit uncertain), Day 2", "result": 342}, {"measurement": "cell viability (CellTiter-Glo luminescent assay)", "setting": "Ark myeloma cell line; 2 (unit uncertain), Day 3", "result": 366}, {"measurement": "cell viability (CellTiter-Glo luminescent assay)", "setting": "Ark myeloma cell line; 2 (unit uncertain), Day 4", "result": 478}, {"measurement": "cell viability (CellTiter-Glo luminescent assay)", "setting": "Ark myeloma cell line; 2 (unit uncertain), Day 5", "result": 299}]}, {"smiles": "CC(C)C[C@H](NC(=O)[C@H](Cc1ccccc1)NC(=O)c1cnccn1)B(O)O", "note": "[Velcade, bortezomib, reference compound]", "values": [{"measurement": "morphological damage of mesenchymal cells", "setting": "[2]", "result": "severe destruction of the mesenchymal cells"}]}]}
